Reference: paper PMC5749554 (Drug Design, Development and Therapy, 2017)

How the values were obtained:
Type in all cases: biochemical
Details in all cases: liver microsomes
CYP2C9 (HLM) [1] = molecular target: T1, CYP2C9 (HLM) (Homo sapiens, UniProt P11712); assay: HPLC-UV of 4-hydroxytolbutamide
CYP2E1 (HLM) = CYP2E1 (HLM) (Homo sapiens, UniProt P05181); assay: cocktail probe-substrate assay, HPLC
CYP2C9 (HLM) [2] = molecular target: T1, CYP2C9 (HLM); assay: cocktail probe-substrate assay, HPLC
CYP2D6 (HLM) [3] = molecular target: T2, CYP2D6 (HLM) (Homo sapiens, UniProt P10635); assay: HPLC-MS/MS of alpha-hydroxymetoprolol
CYP1A2 (HLM) = molecular target: T3, CYP1A2 (HLM) (Homo sapiens, UniProt P05177); assay: cocktail probe-substrate assay, HPLC
T3 sequence (P05177 2-516): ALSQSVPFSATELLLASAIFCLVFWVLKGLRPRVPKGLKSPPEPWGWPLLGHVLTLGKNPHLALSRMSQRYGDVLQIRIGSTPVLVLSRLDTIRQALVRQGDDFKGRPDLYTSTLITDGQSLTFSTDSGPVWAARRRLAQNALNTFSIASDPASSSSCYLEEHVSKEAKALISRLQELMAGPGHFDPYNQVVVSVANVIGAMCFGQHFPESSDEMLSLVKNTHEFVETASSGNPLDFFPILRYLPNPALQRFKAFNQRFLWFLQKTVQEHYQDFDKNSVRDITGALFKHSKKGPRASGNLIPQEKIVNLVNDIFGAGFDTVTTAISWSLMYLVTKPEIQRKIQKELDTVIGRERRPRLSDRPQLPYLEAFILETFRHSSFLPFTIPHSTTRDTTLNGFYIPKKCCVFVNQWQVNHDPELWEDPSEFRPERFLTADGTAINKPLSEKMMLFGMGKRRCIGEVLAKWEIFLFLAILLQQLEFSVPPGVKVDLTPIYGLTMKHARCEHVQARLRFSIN

CYP3A4 (HLM) = CYP3A4 (HLM) (Homo sapiens, UniProt P08684); assay: cocktail probe-substrate assay, HPLC
CYP2D6 (HLM) [4] = molecular target: T2, CYP2D6 (HLM); assay: cocktail probe-substrate assay, HPLC

T1 sequence (P11712 whole entry): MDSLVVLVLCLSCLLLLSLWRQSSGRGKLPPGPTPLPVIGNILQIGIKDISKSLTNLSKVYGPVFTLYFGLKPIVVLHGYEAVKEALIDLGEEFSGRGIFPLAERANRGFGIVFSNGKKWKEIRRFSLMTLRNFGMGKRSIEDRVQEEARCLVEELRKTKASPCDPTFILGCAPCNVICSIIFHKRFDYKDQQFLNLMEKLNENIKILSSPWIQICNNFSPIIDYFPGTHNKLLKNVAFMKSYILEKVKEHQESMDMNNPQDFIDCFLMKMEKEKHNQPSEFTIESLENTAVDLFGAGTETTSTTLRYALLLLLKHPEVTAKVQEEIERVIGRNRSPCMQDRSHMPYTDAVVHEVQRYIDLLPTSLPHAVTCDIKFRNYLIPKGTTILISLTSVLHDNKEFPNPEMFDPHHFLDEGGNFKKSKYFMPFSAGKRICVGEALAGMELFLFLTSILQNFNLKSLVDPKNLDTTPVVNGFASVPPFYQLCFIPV
T2 sequence (P10635 whole entry): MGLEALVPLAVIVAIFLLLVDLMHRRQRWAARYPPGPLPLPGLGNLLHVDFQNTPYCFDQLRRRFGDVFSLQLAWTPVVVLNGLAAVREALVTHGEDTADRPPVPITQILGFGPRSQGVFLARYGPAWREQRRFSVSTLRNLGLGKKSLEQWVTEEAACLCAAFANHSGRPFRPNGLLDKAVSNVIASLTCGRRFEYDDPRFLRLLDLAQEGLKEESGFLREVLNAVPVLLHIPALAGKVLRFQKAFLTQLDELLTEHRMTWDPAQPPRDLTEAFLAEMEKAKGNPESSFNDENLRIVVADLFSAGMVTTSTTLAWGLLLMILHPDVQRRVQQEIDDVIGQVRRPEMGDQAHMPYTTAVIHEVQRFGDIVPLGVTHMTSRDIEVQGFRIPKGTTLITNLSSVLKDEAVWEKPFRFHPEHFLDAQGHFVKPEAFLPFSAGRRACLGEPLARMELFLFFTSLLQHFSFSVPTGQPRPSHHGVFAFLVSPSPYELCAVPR
Sequence of CYP2E1 (HLM) (P05181 whole entry): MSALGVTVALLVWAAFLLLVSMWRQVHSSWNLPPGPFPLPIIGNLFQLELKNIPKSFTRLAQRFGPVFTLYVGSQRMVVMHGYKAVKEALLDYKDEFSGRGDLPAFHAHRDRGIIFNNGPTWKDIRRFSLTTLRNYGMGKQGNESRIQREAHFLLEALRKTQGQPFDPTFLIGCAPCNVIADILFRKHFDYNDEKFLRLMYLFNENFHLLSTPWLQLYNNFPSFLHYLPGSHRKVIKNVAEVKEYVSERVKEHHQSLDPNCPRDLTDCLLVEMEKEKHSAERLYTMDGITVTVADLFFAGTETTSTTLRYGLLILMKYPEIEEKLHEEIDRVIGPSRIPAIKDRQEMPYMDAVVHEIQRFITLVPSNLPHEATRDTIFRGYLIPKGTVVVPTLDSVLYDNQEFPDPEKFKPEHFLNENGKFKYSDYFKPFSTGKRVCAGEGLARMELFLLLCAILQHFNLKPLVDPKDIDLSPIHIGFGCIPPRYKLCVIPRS
Sequence of CYP3A4 (HLM) (P08684 2-503): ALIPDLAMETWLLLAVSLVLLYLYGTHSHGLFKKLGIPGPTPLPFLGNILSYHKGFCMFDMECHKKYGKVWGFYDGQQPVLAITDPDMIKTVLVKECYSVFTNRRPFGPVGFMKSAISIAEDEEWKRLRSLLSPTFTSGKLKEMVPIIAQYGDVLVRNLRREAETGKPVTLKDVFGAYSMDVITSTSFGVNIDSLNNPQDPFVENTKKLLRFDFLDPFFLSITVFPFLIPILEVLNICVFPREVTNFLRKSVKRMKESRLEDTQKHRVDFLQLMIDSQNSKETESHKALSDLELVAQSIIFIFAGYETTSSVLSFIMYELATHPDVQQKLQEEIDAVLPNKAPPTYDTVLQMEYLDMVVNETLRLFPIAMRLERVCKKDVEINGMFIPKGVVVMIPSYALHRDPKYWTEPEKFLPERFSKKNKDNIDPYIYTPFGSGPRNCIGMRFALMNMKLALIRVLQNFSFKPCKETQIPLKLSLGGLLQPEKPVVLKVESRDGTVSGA

SMILES: COc1cc2c(cc1OC)-c1cc3ccc4c(c3c[n+]1CC2)OCO4 [Epiberberine]
- Ki (CYP2C9 (HLM) [1]): 5.64 µM
- IC50 (CYP2E1 (HLM)): 66.3 µM
- IC50 (CYP2C9 (HLM) [2]): 8.18 µM
- Ki (CYP2D6 (HLM) [3]): 25.4 µM
- IC50 (CYP1A2 (HLM)): > 100 µM
- IC50 (CYP3A4 (HLM)): 81.5 µM
- IC50 (CYP2D6 (HLM) [4]): 11.9 µM
